Common to all, as to assay type: cell-based
Assay [1] addresses T1, BaF3_ASV (EGFR_A776inASV) (Homo sapiens, UniProt P00533, DUP767-769).
T1 construct: expressed in transfected cells; host or cells: Ba/F3 (engineered)
The assay can be described thus: EGFR degradation assay (western blot), BaF3_ASV cells. To be noted: BaF3_ASV cells, compounds 24 h, western blot; read-out: BaF3_ASV DC50. In outline:
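Cells seeded overnight, then exposed to compounds for 24 h; lysates run on western blot, EGFR probed with tubulin loading control and fluorescent secondary detection. DC50 = concentration giving 50% EGFR degradation.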
A general note: In western blotting, separated proteins are transferred to a membrane and probed.

For another assay, the system named is A431. The assay can be described thus: Cell growth inhibition assay (CellTiter-Glo), A431. To be noted: Homo sapiens, A-431, 72 h, A431 cells, three days, read-out: A431 GI50. In outline:
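Cells were plated in 96-well plates (Corning 3610) at 90 μL of culture medium per well and incubated overnight at 37° C. The next day, a 1,000× DMSO compound stock was diluted 1:100 in cell culture medium, and 10 μL was added per well. After shaking for 10 min, luminescence was read on an Envision (PerkinElmer) reader.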

The next assay concerns HCC827_LTC. The assay can be described thus: Cell growth inhibition assay (CellTiter-Glo), HCC827_LTC. The following applies: 72 h; Table 8; HCC827 expressing human EGFR L858R/T790M/C797S, endogenous EGFR knockout, three days. The procedure:
(§1) HCC827_LTC and HCC827_DTC cell lines were generated by first transducing HCC827 cells (ATCC) with lentiviral particles expressing codon-optimized human EGFR L858R/T790M/C797S (LTC) mutant or Del19/T790M/C797S (DTC) mutant, and then selecting under 5 μg/ml puromycin treatment for a week. The endogenous EGFR alleles were subsequently abolished using the Alt-R™ CRISPR-Cas9 technology (Integrated DNA Technologies). Single clones of HCC827_LTC and HCC827_DTC were selected and validated for endogenous EGFR knockout using Sanger sequencing.
(§2) Cells were seeded in a 96-well plate (Corning 3610) with 90 μL of culture medium per well, and plates were incubated at 37° C. overnight. A 1,000× DMSO stock solution of the desired compound was prepared the following day. A compound dilution plate was prepared by diluting the stock solution 1:100 in the corresponding cell culture medium, 10 μL of the diluted compound solution was added to each 96-well plate well containing the seeded cells. Then, the cells were cultured at 37° C. for three days following compound treatment, 100 μL of CellTiter-Glo reagents (Promega G7573) was added to each well of the 96-well plate. The content of the wells was mixed by shaking continuously for 10 min, and luminescence was measured using Envision (PerkinElmer). The data were analyzed with GraphPad Prism 9 (see FIG. 50).
(§3) Table 6, Table 7, and Table 8 list the cell growth inhibition results, where Gls0 represents the compound concentration to cause 50% cell growth inhibition in comparison with DMSO.
(In general: In ATP-based viability assays light output follows the ATP content of the culture.)

The subject of the next assay is BaF3_ASV. The assay can be described thus: Cell growth inhibition assay (CellTiter-Glo), BaF3_ASV. To be noted: 72 h; Table 6; BaF3_ASV cells, three days, CellTiter-Glo; read-out: BaF3_ASV GI50.
In a further assay the test system is HCC827_DTC. The assay can be described thus: Cell growth inhibition assay (CellTiter-Glo), HCC827_DTC. To be noted: 72 h; Table 8; HCC827 expressing human EGFR Del19/T790M/C797S, endogenous EGFR knockout, three days. The procedure:
as §1, §2, §3

The next assay concerns HCC827. The assay can be described thus: Cell growth inhibition assay (CellTiter-Glo), HCC827. To be noted: Homo sapiens, 72 h, Table 8, HCC827 cells, three days. The procedure:
as §1, §2, §3

The next assay concerns BaF3_DTC. The assay can be described thus: Cell growth inhibition assay (CellTiter-Glo), BaF3_DTC. To be noted: 72 h; Table 6; BaF3_DTC cells, three days, CellTiter-Glo; read-out: BaF3_DTC GI50.
The next assay concerns NCI-H2073. The assay can be described thus: Cell growth inhibition assay (CellTiter-Glo), NCI-H2073. To be noted: 72 h; Table 8; NCI-H2073 cells, three days. The procedure: as §2, with “Then, the cells were cultured at 37° C. for three days following compound treatment, 100 μL of CellTiter-Glo reagents (Promega G7573) was added to each well of the 96-well plate.” left out
as §3

Like-named read-outs stand apart in the source and are kept apart here.

T1 sequence (P00533 with tags, fused parts or gaps DUP767-769): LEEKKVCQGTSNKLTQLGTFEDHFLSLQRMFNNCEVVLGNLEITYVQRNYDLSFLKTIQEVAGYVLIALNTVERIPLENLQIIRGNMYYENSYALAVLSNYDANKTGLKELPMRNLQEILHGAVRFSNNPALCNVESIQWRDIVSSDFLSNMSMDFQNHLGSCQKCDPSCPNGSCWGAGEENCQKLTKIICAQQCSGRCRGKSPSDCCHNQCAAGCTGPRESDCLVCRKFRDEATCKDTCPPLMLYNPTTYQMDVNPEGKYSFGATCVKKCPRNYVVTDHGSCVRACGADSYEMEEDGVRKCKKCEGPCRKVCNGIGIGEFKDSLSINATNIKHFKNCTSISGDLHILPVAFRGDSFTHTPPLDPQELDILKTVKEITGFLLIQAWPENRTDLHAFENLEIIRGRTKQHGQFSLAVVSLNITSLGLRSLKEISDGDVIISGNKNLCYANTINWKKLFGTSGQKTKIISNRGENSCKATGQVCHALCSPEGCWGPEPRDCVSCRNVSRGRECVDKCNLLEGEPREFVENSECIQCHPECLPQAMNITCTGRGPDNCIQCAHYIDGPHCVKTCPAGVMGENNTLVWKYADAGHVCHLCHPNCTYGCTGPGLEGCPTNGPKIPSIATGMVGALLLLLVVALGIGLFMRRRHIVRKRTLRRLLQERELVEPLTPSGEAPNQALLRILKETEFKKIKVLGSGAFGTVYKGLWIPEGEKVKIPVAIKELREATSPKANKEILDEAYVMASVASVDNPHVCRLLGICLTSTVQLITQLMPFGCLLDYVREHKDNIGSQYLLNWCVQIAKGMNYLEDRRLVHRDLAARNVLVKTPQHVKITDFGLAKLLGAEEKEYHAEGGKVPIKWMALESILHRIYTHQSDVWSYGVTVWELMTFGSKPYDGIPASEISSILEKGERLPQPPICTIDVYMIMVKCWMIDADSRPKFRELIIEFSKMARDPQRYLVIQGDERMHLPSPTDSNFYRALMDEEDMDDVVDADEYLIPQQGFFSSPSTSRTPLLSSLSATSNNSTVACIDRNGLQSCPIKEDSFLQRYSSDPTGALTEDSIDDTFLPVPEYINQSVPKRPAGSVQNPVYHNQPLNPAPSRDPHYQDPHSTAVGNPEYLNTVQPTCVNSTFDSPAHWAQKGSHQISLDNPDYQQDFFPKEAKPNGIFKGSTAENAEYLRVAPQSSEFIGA

As a reminder, the DC50 is the concentration giving 50% degradation. As a reminder, the GI50 is the concentration that inhibits growth by half. Regarding `CCn1c(=O)n(C2CCC(=O)NC2=O)c2cccc(CCN3CCN(C4CCN(c5cc(OC)c(Nc6ncc(Br)c(Nc7ccc8nccnc8c7NS(C)(=O)=O)n6)cc5-c5cnn(C)c5)CC4)CC3)c21` (stereo not drawn) [Compound 28, N-(6-((5-bromo-2-((4-(4-(4-(2-(1-(2,6-dioxopiperidin-3-yl)-3-ethyl-2-oxo-2,3-dihydro-1H-benzo[d]imidazol-4-yl)ethyl)piperazin-1-yl)piperidin-1-yl)-2-methoxy-5-(1-methyl-1H-pyrazol-4-yl)phenyl)amino)pyrimidin-4-yl)amino)quinoxalin-5-yl)methanesulfonamide], the 50% degradation concentration (DC50) in assay [1] was 93.6 nM. Moreover, the 50% growth inhibitory concentration (GI50) was determined as 271 nM in the assay with A431 (Table 6, CellTiter-Glo); 150 nM with A431 (Table 8); 1.03 nM in the assay with HCC827_LTC; 56.3 nM in the assay on BaF3_ASV; 4.42 nM in the assay with HCC827_DTC; 0.52 nM in the assay on HCC827. In addition, the GI50 in the assay with BaF3_DTC was 15.8 nM; in the assay on NCI-H2073, 340 nM.

Source of the values: US20250002473A1, “QUINOXALINE DERIVED SULFONAMIDES WITH EGFR DEGRADATION ACTIVITIES AND THEIR USES THEREOF” (Accutar Biotechnology Inc., priority 2023, published 2025).
